Active and inactive are the calls of the source. The rule behind the calls is not given here.
System: CCRIS mutagenicity, Ames/micronucleus/aberration tests
Assay: CCRIS mutagenicity studies
[1] = Test System: AMES SALMONELLA TYPHIMURIUM, Strain/Indicator: TA98, Metabolic Activation: NONE, Method: PREINCUBATION
[2] = Test System: AMES SALMONELLA TYPHIMURIUM, Strain/Indicator: TA98, Metabolic Activation: NONE, Method: STANDARD PLATE
[3] = Test System: AMES SALMONELLA TYPHIMURIUM, Strain/Indicator: TA98, Metabolic Activation: RAT, LIVER, S-9, AROCLOR 1254, Method: STANDARD PLATE
[4] = Test System: AMES SALMONELLA TYPHIMURIUM, Strain/Indicator: TA100, Metabolic Activation: NONE, Method: PREINCUBATION
[5] = Test System: AMES SALMONELLA TYPHIMURIUM, Strain/Indicator: TA100, Metabolic Activation: NONE, Method: STANDARD PLATE
[6] = Test System: AMES SALMONELLA TYPHIMURIUM, Strain/Indicator: TA1535, Metabolic Activation: NONE, Method: PREINCUBATION
[7] = Test System: AMES SALMONELLA TYPHIMURIUM, Strain/Indicator: TA1537, Metabolic Activation: NONE, Method: PREINCUBATION

Structure (SMILES): Oc1c(Cl)c(Cl)c(Cl)c(Cl)c1Cl
- mutagenic call (End Point: IN VITRO CHROMOSOMAL ABERRATIONS, Test System: CHINESE HAMSTER OVARY CELLS, Metabolic Activation: NONE): inactive; negative
- mutagenic call (Test System: AMES SALMONELLA TYPHIMURIUM, Strain/Indicator: TA97A, Metabolic Activation: NONE, Method: STANDARD PLATE): inactive; negative
- mutagenic call (Test System: AMES SALMONELLA TYPHIMURIUM, Strain/Indicator: TA97A, Metabolic Activation: RAT LIVER S-9, AROCLOR 1254, Method: STANDARD PLATE): inactive; negative
- mutagenic call (Test System: AMES SALMONELLA TYPHIMURIUM, Strain/Indicator: TA98, Metabolic Activation: HAMSTER, LIVER, S-9, AROCLOR 1254, Method: PREINCUBATION): inactive; negative
- mutagenic call [1]: inactive; negative
- mutagenic call [2]: inactive; negative
- mutagenic call (Test System: AMES SALMONELLA TYPHIMURIUM, Strain/Indicator: TA98, Metabolic Activation: RAT LIVER S-9, AROCLOR 1254, Method: STANDARD PLATE): inactive; negative
- mutagenic call (Test System: AMES SALMONELLA TYPHIMURIUM, Strain/Indicator: TA98, Metabolic Activation: RAT, LIVER, S-9, AROCLOR 1254, Method: PREINCUBATION): inactive; negative
- mutagenic call [3]: active; positive
- mutagenic call (Test System: AMES SALMONELLA TYPHIMURIUM, Strain/Indicator: TA100, Metabolic Activation: HAMSTER, LIVER, S-9, AROCLOR 1254, Method: PREINCUBATION): inactive; negative
- mutagenic call [4]: inactive; negative
- mutagenic call [5]: inactive; negative
- mutagenic call (Test System: AMES SALMONELLA TYPHIMURIUM, Strain/Indicator: TA100, Metabolic Activation: RAT LIVER S-9, AROCLOR 1254, Method: STANDARD PLATE): inactive; negative
- mutagenic call (Test System: AMES SALMONELLA TYPHIMURIUM, Strain/Indicator: TA100, Metabolic Activation: RAT, LIVER, S-9, AROCLOR 1254, Method: PREINCUBATION): inactive; negative
- mutagenic call (Test System: AMES SALMONELLA TYPHIMURIUM, Strain/Indicator: TA1535, Metabolic Activation: HAMSTER, LIVER, S-9, AROCLOR 1254, Method: PREINCUBATION): inactive; negative
- mutagenic call [6]: inactive; negative
- mutagenic call (Test System: AMES SALMONELLA TYPHIMURIUM, Strain/Indicator: TA1535, Metabolic Activation: RAT, LIVER, S-9, AROCLOR 1254, Method: PREINCUBATION): inactive; negative
- mutagenic call (Test System: AMES SALMONELLA TYPHIMURIUM, Strain/Indicator: TA1537, Metabolic Activation: HAMSTER, LIVER, S-9, AROCLOR 1254, Method: PREINCUBATION): inactive; negative
- mutagenic call [7]: inactive; negative
- mutagenic call (Test System: AMES SALMONELLA TYPHIMURIUM, Strain/Indicator: TA1537, Metabolic Activation: RAT, LIVER, S-9, AROCLOR 1254, Method: PREINCUBATION): inactive; negative
- mutagenic call (Test System: CHINESE HAMSTER V-79, Strain/Indicator: V-79/6-THIOGUANINE, Metabolic Activation: NONE, Method: STANDARD PLATE): inactive; negative
- mutagenic call (Test System: CHINESE HAMSTER V-79, Strain/Indicator: V-79/6-THIOGUANINE, Metabolic Activation: PRIMARY RAT HEPATOCYTES, Method: STANDARD PLATE): inactive; negative

Structure (SMILES): O=C[C@H](O)[C@@H](O)[C@H](O)[C@H](O)CO
- mutagenic call (Test System: AMES SALMONELLA TYPHIMURIUM, Strain/Indicator: TA98, Metabolic Activation: RAT LIVER S-9, CHLOROPHENE, Method: STANDARD PLATE (COMPOUND HEATED AT 250 DEGREES CELSIUS FOR 20 MIN)): inactive; negative
- mutagenic call (Test System: MOUSE LYMPHOMA, Strain/Indicator: L5178Y (TK+/TK-), Metabolic Activation: NONE, Method: SUSPENSION/PLATE): active; positive

Structure (SMILES): COc1cc2c(cc1OC)[C@@]13CCN4CC5=CCO[C@H]6CC(=O)N2[C@H]1[C@H]6[C@H]5C[C@H]43
- mutagenic call (Test System: AMES SALMONELLA TYPHIMURIUM, Strain/Indicator: TA98, Metabolic Activation: HAMSTER, LIVER, S-9, AROCLOR 1254 (10%), Method: PREINCUBATION): inactive; negative
- mutagenic call [1]: inactive; negative
- mutagenic call (Test System: AMES SALMONELLA TYPHIMURIUM, Strain/Indicator: TA98, Metabolic Activation: RAT, LIVER, S-9, AROCLOR 1254 (10%), Method: PREINCUBATION): inactive; negative
- mutagenic call (Test System: AMES SALMONELLA TYPHIMURIUM, Strain/Indicator: TA100, Metabolic Activation: HAMSTER, LIVER, S-9, AROCLOR 1254 (10%), Method: PREINCUBATION): inactive; negative
- mutagenic call [4]: inactive; negative
- mutagenic call (Test System: AMES SALMONELLA TYPHIMURIUM, Strain/Indicator: TA100, Metabolic Activation: RAT, LIVER, S-9, AROCLOR 1254 (10%), Method: PREINCUBATION): inactive; negative
- mutagenic call (Test System: AMES SALMONELLA TYPHIMURIUM, Strain/Indicator: TA1535, Metabolic Activation: HAMSTER, LIVER, S-9, AROCLOR 1254 (10%), Method: PREINCUBATION): inactive; negative
- mutagenic call [6]: inactive; negative
- mutagenic call (Test System: AMES SALMONELLA TYPHIMURIUM, Strain/Indicator: TA1535, Metabolic Activation: RAT, LIVER, S-9, AROCLOR 1254 (10%), Method: PREINCUBATION): inactive; negative
- mutagenic call (Test System: AMES SALMONELLA TYPHIMURIUM, Strain/Indicator: TA1537, Metabolic Activation: HAMSTER, LIVER, S-9, AROCLOR 1254 (10%), Method: PREINCUBATION): inactive; negative
- mutagenic call [7]: inactive; negative
- mutagenic call (Test System: AMES SALMONELLA TYPHIMURIUM, Strain/Indicator: TA1537, Metabolic Activation: RAT, LIVER, S-9, AROCLOR 1254 (10%), Method: PREINCUBATION): inactive; negative

Structure (SMILES): CC(=O)O.CC(=O)O.O.O.[O]=[U]=[O]
- mutagenic call (Test System: Chinese hamster ovary, Strain/Indicator: AA8 (HPRT)/6-Thioguanine, Metabolic Activation: None, Method: Standard plate): inactive; negative
- mutagenic call (Test System: Chinese hamster ovary, Strain/Indicator: EM9 (HPRT)/6-Thioguanine, Metabolic Activation: None, Method: Standard plate): active; positive, em9 cho cells are xrcc1-deficient.

Structure (SMILES): CCOC(=O)C1=C(C)NC(C)=C(C(=O)OCC2COC3(CCCC3)O2)C1c1cccc(Cl)c1 (configuration not stated)
- mutagenic call (Test System: AMES SALMONELLA TYPHIMURIUM, Strain/Indicator: TA97, Metabolic Activation: NONE, Method: STANDARD PLATE): inactive; negative
- mutagenic call (Test System: AMES SALMONELLA TYPHIMURIUM, Strain/Indicator: TA97, Metabolic Activation: RAT, LIVER, S-9, Method: STANDARD PLATE): inactive; negative
- mutagenic call [2]: inactive; negative
- mutagenic call (Test System: AMES SALMONELLA TYPHIMURIUM, Strain/Indicator: TA98, Metabolic Activation: RAT, LIVER, S-9, Method: STANDARD PLATE): inactive; negative
- mutagenic call [5]: inactive; negative
- mutagenic call (Test System: AMES SALMONELLA TYPHIMURIUM, Strain/Indicator: TA100, Metabolic Activation: RAT, LIVER, S-9, Method: STANDARD PLATE): inactive; negative
- mutagenic call (Test System: AMES SALMONELLA TYPHIMURIUM, Strain/Indicator: TA102, Metabolic Activation: NONE, Method: STANDARD PLATE): inactive; negative
- mutagenic call (Test System: AMES SALMONELLA TYPHIMURIUM, Strain/Indicator: TA102, Metabolic Activation: RAT, LIVER, S-9, Method: STANDARD PLATE): inactive; negative
- mutagenic call (Test System: CHINESE HAMSTER V-79, Strain/Indicator: V-79 (HPRT)/6-THIOGUANINE, Metabolic Activation: NONE): inactive; negative

Structure (SMILES): O=C(O)c1cc(I)cc2cccnc12
- mutagenic call [2]: inactive; negative
- mutagenic call [3]: inactive; negative
- mutagenic call [5]: inactive; negative
- mutagenic call (Test System: AMES SALMONELLA TYPHIMURIUM, Strain/Indicator: TA100, Metabolic Activation: RAT, LIVER, S-9, AROCLOR 1254, Method: STANDARD PLATE): inactive; negative
- mutagenic call (Test System: AMES SALMONELLA TYPHIMURIUM, Strain/Indicator: TA1535, Metabolic Activation: NONE, Method: STANDARD PLATE): inactive; negative
- mutagenic call (Test System: AMES SALMONELLA TYPHIMURIUM, Strain/Indicator: TA1535, Metabolic Activation: RAT, LIVER, S-9, AROCLOR 1254, Method: STANDARD PLATE): inactive; negative
- mutagenic call (Test System: AMES SALMONELLA TYPHIMURIUM, Strain/Indicator: TA1537, Metabolic Activation: NONE, Method: STANDARD PLATE): inactive; negative
- mutagenic call (Test System: AMES SALMONELLA TYPHIMURIUM, Strain/Indicator: TA1537, Metabolic Activation: RAT, LIVER, S-9, AROCLOR 1254, Method: STANDARD PLATE): inactive; negative

Structure (SMILES): CCOC(=O)Nc1cccc2c1[nH]c1ccncc12
- mutagenic call [7]: inactive; negative
- mutagenic call (Test System: AMES SALMONELLA TYPHIMURIUM, Strain/Indicator: TA1537, Metabolic Activation: RAT, LIVER, S-9, PHENOBARBITAL, Method: PREINCUBATION): inactive; negative

— PubChem BioAssay AID1259407 (Chemical Carcinogenesis Research Information System (CCRIS), 2018)
